Source: ChEMBL document CHEMBL4507268 (2021)

Assays:
[1] = biological target: Bone morphogenetic protein receptor type-1B (Homo sapiens) (UniProt O00238); details: Compound concentration 1000.0 nM
[2] = biological target: Dual specificity protein kinase CLK4 (Homo sapiens) (UniProt Q9HAZ1); details: Compound concentration 1000.0 nM
[3] = biological target: Mitogen-activated protein kinase kinase kinase 12 (Homo sapiens) (UniProt Q12852); details: Compound concentration 1000.0 nM
[4] = test system: Receptor-type tyrosine-protein kinase FLT3 (Homo sapiens), P36888 [UNDEFINED MUTATION]; details: Compound concentration 1000.0 nM
[5] = biological target: Misshapen-like kinase 1 (Homo sapiens) (UniProt Q8N4C8); details: Compound concentration 1000.0 nM
Misshapen-like kinase 1 (Homo sapiens), sequence (Q8N4C8 whole entry, looked up): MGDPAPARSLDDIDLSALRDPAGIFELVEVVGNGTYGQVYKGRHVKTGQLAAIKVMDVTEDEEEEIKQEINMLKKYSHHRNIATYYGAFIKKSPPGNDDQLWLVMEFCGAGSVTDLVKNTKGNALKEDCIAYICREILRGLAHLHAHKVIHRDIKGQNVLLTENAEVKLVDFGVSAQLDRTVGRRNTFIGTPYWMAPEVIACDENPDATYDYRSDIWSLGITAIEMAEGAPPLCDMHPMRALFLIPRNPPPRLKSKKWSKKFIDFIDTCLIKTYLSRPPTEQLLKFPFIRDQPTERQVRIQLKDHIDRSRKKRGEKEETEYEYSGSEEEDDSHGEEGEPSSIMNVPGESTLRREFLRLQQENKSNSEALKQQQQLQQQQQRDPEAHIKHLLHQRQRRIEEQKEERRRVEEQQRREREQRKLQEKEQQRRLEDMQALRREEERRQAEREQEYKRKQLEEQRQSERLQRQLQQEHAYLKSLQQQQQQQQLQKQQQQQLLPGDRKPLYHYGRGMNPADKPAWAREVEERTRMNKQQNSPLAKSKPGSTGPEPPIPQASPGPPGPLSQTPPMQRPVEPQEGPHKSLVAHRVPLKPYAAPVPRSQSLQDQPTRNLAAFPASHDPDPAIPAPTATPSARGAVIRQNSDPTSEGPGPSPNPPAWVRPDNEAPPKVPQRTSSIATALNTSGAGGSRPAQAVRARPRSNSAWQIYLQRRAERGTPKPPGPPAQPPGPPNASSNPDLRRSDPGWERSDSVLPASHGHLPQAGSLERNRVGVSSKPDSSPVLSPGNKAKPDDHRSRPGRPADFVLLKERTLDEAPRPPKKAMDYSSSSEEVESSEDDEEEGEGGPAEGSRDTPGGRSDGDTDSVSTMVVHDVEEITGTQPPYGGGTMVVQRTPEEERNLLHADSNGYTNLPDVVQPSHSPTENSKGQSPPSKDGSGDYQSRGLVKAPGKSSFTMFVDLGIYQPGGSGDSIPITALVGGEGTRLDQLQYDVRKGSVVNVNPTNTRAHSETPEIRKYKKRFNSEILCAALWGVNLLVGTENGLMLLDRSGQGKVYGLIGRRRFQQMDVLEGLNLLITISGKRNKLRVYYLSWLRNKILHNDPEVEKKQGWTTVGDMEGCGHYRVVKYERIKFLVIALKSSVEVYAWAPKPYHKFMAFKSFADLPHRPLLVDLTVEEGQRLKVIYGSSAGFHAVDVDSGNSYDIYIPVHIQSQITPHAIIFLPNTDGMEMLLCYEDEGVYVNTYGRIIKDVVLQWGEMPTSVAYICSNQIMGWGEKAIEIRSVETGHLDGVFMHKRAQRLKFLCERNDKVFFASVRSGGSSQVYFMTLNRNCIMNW

[6] = biological target: T1, Muscle, skeletal receptor tyrosine-protein kinase (Homo sapiens) (UniProt O15146); details: Compound concentration 1000.0 nM
T1 sequence (whole entry): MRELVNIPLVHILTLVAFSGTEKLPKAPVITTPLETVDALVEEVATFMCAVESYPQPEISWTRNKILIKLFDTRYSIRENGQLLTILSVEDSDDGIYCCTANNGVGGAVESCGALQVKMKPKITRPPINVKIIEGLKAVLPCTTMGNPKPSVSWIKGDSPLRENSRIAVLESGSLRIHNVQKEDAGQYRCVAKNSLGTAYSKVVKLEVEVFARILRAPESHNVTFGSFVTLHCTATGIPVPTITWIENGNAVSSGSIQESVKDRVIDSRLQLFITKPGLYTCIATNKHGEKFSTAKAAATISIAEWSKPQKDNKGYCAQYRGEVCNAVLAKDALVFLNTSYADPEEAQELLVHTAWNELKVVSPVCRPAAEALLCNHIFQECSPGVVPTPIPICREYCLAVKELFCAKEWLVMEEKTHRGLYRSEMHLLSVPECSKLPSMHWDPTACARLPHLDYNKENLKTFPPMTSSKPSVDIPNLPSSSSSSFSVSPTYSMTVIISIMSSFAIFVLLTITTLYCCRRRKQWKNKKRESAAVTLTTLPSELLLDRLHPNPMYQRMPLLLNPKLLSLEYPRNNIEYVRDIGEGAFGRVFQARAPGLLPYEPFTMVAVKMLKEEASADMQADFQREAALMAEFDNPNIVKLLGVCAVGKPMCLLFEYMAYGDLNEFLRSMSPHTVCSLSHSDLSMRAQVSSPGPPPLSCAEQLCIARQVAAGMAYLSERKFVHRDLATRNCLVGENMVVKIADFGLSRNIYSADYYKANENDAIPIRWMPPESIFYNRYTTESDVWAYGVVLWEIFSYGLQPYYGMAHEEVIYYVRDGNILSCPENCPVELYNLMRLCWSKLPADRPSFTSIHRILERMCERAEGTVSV

[7] = biological target: Serine/threonine-protein kinase NIM1 (Homo sapiens) (UniProt Q8IY84); details: Compound concentration 1000.0 nM
Serine/threonine-protein kinase NIM1 (Homo sapiens), sequence (Q8IY84 whole entry): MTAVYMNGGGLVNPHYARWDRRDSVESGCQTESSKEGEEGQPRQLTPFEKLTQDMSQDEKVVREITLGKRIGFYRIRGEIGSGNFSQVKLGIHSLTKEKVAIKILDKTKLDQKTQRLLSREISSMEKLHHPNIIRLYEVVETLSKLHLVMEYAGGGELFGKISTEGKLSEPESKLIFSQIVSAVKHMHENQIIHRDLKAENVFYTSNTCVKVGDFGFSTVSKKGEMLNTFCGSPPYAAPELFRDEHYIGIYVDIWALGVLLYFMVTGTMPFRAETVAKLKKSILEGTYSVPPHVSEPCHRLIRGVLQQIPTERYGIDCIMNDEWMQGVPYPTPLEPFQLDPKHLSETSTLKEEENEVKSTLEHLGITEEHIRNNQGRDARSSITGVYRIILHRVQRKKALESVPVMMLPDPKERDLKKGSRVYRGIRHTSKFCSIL

[8] = biological target: T2, Mitogen-activated protein kinase 12 (Homo sapiens) (UniProt P53778); details: Compound concentration 1000.0 nM
T2 sequence (whole entry): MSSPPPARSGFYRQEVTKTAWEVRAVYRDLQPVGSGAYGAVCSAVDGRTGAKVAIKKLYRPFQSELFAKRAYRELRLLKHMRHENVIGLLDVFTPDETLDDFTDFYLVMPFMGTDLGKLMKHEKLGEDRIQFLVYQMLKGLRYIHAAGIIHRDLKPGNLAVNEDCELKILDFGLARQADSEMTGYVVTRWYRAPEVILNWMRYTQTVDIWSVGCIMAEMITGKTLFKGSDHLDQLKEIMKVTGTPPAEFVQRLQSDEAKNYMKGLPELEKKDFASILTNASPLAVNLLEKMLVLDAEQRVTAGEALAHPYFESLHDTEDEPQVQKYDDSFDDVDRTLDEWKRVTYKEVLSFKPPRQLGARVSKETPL

[9] = biological target: Serine/threonine-protein kinase PAK 6 (Homo sapiens) (UniProt Q9NQU5); details: Compound concentration 1000.0 nM
[10] = biological target: T3, Protein kinase C epsilon type (Homo sapiens) (UniProt Q02156); details: Compound concentration 1000.0 nM
T3 sequence (whole entry): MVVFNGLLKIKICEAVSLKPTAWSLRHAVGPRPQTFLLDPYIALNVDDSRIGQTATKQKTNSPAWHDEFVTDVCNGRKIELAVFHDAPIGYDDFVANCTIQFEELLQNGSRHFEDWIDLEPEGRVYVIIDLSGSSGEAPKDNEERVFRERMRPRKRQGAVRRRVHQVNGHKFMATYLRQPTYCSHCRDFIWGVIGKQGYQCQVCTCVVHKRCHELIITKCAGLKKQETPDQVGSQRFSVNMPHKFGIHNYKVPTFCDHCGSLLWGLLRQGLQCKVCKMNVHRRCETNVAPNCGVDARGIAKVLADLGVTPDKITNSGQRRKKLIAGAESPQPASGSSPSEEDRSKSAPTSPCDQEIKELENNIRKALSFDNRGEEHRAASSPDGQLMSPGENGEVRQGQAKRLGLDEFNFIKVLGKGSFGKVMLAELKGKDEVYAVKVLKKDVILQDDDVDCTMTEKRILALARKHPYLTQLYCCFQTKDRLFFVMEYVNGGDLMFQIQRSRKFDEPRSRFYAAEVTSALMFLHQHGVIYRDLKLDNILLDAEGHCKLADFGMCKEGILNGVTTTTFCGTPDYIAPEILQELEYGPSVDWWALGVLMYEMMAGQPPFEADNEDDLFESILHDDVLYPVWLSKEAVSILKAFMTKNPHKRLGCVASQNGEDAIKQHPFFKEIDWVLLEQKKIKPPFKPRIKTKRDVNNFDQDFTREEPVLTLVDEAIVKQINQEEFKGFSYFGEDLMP

[11] = biological target: Protein-tyrosine kinase 2-beta (Homo sapiens) (UniProt Q14289); details: Compound concentration 1000.0 nM
Protein-tyrosine kinase 2-beta (Homo sapiens), sequence (Q14289 whole entry, looked up): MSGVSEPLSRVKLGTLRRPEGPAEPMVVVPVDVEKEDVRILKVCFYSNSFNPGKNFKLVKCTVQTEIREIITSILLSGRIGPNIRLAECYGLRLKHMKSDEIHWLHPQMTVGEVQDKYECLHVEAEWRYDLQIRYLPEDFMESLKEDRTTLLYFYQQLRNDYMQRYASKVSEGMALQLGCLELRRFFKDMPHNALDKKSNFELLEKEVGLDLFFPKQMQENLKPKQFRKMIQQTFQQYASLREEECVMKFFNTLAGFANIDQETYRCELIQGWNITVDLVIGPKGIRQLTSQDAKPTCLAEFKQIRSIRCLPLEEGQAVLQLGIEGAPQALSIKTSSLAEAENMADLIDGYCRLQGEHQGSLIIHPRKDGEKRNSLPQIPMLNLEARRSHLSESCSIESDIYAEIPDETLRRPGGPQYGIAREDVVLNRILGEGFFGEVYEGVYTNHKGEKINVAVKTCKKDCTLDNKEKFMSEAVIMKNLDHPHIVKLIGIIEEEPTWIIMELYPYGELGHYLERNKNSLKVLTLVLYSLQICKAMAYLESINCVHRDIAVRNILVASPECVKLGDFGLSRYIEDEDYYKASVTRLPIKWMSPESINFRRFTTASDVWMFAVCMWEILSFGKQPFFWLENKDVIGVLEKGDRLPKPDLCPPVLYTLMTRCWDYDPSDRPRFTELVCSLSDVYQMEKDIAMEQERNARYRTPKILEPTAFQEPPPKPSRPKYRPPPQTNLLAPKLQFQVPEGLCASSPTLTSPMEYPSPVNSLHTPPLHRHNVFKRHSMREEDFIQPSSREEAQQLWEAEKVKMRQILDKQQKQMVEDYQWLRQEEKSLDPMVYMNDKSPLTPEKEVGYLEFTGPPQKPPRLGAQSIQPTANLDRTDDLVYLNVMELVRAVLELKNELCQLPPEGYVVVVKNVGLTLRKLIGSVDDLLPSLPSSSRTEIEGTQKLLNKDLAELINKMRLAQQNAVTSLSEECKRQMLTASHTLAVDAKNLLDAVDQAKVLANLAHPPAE

[12] = biological target: RAF proto-oncogene serine/threonine-protein kinase (Homo sapiens) (UniProt P04049); details: Compound concentration 1000.0 nM
RAF proto-oncogene serine/threonine-protein kinase (Homo sapiens), sequence (P04049 whole entry): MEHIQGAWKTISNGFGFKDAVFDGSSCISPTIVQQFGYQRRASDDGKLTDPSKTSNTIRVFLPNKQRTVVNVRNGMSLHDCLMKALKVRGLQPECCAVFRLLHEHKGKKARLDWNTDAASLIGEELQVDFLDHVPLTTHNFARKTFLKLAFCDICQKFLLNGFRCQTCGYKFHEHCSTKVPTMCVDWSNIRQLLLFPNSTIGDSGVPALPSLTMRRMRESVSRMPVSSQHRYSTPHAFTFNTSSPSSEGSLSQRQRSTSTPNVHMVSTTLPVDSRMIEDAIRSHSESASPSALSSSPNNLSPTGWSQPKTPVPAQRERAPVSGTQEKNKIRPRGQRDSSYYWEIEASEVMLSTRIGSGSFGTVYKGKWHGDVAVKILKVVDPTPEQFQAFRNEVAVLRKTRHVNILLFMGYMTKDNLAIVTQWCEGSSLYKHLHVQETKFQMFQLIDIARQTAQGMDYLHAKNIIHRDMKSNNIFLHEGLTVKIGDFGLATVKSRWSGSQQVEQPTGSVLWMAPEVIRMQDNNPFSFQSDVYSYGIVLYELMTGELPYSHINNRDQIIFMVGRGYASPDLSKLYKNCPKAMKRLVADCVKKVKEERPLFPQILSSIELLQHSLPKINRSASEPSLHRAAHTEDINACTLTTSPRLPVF

[13] = biological target: Serine/threonine-protein kinase RIO3 (Homo sapiens) (UniProt O14730); details: Compound concentration 1000.0 nM
[14] = biological target: Sigma non-opioid intracellular receptor 1 (Homo sapiens, UniProt Q99720); details: Compound concentration 10.0 uM
Sigma non-opioid intracellular receptor 1, sequence (Q99720 whole entry): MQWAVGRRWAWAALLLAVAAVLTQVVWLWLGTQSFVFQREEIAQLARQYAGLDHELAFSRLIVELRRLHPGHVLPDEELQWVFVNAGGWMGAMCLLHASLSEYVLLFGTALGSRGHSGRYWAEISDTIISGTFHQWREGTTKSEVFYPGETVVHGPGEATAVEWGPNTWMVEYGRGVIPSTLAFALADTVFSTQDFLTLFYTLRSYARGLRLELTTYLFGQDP

Dual specificity protein kinase CLK4 (Homo sapiens), sequence (Q9HAZ1 whole entry, looked up): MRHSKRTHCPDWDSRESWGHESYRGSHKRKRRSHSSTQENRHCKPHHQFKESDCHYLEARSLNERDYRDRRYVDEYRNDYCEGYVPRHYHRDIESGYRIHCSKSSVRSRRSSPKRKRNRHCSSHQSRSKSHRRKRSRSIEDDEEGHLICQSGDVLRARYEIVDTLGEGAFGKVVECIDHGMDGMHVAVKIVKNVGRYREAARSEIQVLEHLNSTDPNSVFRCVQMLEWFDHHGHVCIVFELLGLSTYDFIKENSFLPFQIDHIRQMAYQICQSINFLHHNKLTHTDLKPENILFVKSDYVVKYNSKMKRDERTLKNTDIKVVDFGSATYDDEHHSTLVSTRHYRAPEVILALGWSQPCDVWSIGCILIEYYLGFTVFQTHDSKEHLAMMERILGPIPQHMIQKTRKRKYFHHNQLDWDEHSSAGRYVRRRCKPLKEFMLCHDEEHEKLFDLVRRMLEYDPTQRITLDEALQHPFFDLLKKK
Bone morphogenetic protein receptor type-1B (Homo sapiens), sequence (O00238 whole entry): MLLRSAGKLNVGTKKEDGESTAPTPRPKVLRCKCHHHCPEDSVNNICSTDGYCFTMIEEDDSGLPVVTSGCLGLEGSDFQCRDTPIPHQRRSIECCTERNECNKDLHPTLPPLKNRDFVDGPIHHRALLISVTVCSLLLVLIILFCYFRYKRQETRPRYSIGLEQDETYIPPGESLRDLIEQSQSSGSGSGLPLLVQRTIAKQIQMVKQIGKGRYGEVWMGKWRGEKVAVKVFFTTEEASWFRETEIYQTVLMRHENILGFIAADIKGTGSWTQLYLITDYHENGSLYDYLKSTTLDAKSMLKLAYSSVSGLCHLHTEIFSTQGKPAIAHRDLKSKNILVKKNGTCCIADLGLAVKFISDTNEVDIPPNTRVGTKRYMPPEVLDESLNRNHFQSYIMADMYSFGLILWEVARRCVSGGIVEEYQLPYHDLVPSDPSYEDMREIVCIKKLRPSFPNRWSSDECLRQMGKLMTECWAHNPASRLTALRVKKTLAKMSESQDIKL

SMILES	residual activity [1]	residual activity [2]	residual activity [3]	residual activity [4]	residual activity [5]	residual activity [6]	residual activity [7]	residual activity [8]	residual activity [9]	residual activity [10]	residual activity [11]	residual activity [12]	residual activity [13]	inhibition [14]
Cc1nc(C2CCN(C(=O)c3ccc(OC(F)(F)F)cc3N)CC2)c2ncc(N3CCN(C)CC3)cc2n1 [BAY-693]	93%	97%	100%	84%	93%	100%	89%	100%	93%	100%	100%	77%	87%	72.7%
CN1CCN(c2cnc3c(C4CCN(C(=O)c5ccc(OC(F)(F)F)cc5N)CC4)ncnc3c2)CC1 [BAY-885]	100%	98%	100%	100%	85%	100%	100%	83%	100%	100%	100%	75%	97%	72.4%
